Laboratory results reported in patent US9481684B2, “Gonadotropin releasing hormone receptor antagonists, method for the preparation thereof and pharmaceutical composition comprising the same” (SK CHEMICALS CO., LTD., priority 2012, dated 2016).
Where two headings read alike, the source gives them in different places.

Legend:
GnRH receptor [1] = biological target: T1, GnRH receptor (Homo sapiens, UniProt P30968); assay: GnRH receptor-membrane binding assay ([125I]-D-Trp6-LHRH displacement); set-up: purchased PerkinElmer; host or cells: CHO-K1 (ATCC CCL-61), stably transfected; details: for inhibition at 0.01 µM: read-out: GnRH binding inhibition (%) at 10 nM; for inhibitory effect compared with compounds comprising alkyl group (Examples 1-2 and 1-3): benzyl versus alkyl substituent at spiro-piperidine, comment on Table 10 (binding and NFAT reporter)
T1 sequence (P30968 1-328): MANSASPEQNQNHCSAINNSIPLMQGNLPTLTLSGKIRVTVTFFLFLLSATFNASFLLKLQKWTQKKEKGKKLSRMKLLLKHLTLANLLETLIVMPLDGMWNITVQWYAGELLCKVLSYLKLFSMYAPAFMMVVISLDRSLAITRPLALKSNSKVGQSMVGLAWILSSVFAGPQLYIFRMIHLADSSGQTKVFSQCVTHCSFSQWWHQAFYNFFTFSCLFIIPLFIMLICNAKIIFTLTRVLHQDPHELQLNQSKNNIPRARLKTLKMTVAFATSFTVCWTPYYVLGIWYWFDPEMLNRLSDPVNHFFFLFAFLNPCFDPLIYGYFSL
Description: A GnRH receptor membrane binding assay was carried out for the compounds of the present invention by employing a membrane substrate (PerkinElmer) isolated from CHO-K1 cells (ATCC CCL-61) stably transfected with a GnRH receptor.
A reaction was initiated by the addition of a 0.2 nM [^125I]-labeled D-Trp^6-LHRH peptide and the GnRH receptor membrane substrate at a density of 1 μg/250 μL/well, together with the inventive compounds at various concentrations ranging from 0.1 nM to 100 nM, to a binding buffer composed of 25 mM Hepes (pH 7.4), 10 mM MgCl2, 1 mM CaCl2 and 0.5% BSA (pH 7.4). The reaction mixture was incubated at 27° C. for 1 hr and subjected to vacuum suction for binding to a filter (Fitermat A, PerkinElmer). The filter was washed several times with 50 mM tris-HCl buffer to terminate the reaction. The radioactivity binding to the filter was measured using MicroBeta2 TriLux (PerkinElmer). The binding inhibition rate (%) of the inventive compounds were analyzed on the basis of the measured radioactivity, and IC50 value was calculated using a non-linear least square regression method with Prism (GraphPad, Inc.).

GnRH receptor [2] = biological target: T1, GnRH receptor; assay: NFAT reporter (luciferase) gene expression assay for antagonistic effect on GnRH receptor, HEK293 transformed with pcDNA3.1/GnRH receptor and pGL4/NFAT promoter; type: cell-based
Description: For evaluation of antagonistic effect on GnRH receptor, double-transformed cell line, HEK293 (ATCC CRL-1573) which is transformed with pcDNA3.1/GnRH receptor and pGL4/NFAT promoter, was employed.
To conduct a GnRH receptor assay, the HEK293 (ATCC CRL-1573) cell line was diluted at a density of 3×10^4 cells/well in a DMEM medium supplemented with 10% FBS, 1% Penicillin-Streptomycin, and plated into polylysine-coated 96-well plates having a white-clear bottom, followed by incubating the cells at 37° C. for 24 hrs. Then, the medium was changed with a serum-free DMEM medium (1% Penicillin-Streptomycin), and the cells were incubated for an additional 16 hrs before use.
Test compounds were added to the wells in an amount of 1 μM to 0.01 nM, respectively, and further incubated for 1 hr. Then, leuprolide acetate as a ligand (Sigma) was added to the wells in an amount of 1 nM or 20 nM and subjected to an additional incubation for 6 hrs. The reagent of Luciferase assay system (Promega, Cat. No. E1500) was added to the wells and luminescence was measured using a luminometer (PerkinElmer, VICTOR3™, 1420 Multilabel Counter). The compound of formula 10b described in J. Med. Chem. 2008, 51, 7478 was used as a comparative compound.
Each sample was analyzed at a 6-dose level and the NFAT reporter inhibitory rate (%) of the inventive compounds was calculated according to the following equation based on the measured luminescence. Inhibition (%)={1−(compound−negative control)/(positive control−negative control)}×100 [Equation]
wherein, positive control is GnRH treated group; and negative control is non-treated group.

[3] = compound at 10 nM, 0.2 nM [125I]-D-Trp6-LHRH, CHO-K1 GnRH receptor membrane
[4] = HEK293, read-out: NFAT reporter activity inhibition (%) at 100 nM
[5] = compound at 100 nM, leuprolide acetate as ligand, HEK293, read-out: NFAT reporter activity inhibition (%) at 100 nM

| Structure (SMILES) | inhibition at 0.01 µM (GnRH receptor [1]; [3]) | inhibition at 0.1 µM (GnRH receptor [2]; [5]) | other results |
| --- | --- | --- | --- |
| COCCN1CCC2(CC1)OCc1c2c(=O)n(C[C@H](N)c2ccccc2)c(=O)n1Cc1c(F)cccc1C(F)(F)F [Example 1-2, (R)-3-(2-amino-2-phenylethyl)-1-(2-fluoro-6-(trifluoromethyl)benzyl)-1′-(2-methoxyethyl)-1H-spiro[furo[3,4-d]pyrimidine-5,4′-piperidine]-2,4(3H,7H)-dione] | 50.8% |  |  |
| CC(C)(C)CN1CCC2(CC1)OCc1c2c(=O)n(C[C@H](N)c2ccccc2)c(=O)n1Cc1c(F)cccc1C(F)(F)F [Example 1-3, (R)-3-(2-amino-2-phenylethyl)-1-(2-fluoro-6-(trifluoromethyl)benzyl)-1′-neopentyl-1H-spiro[furo[3,4-d]pyrimidine-5,4′-piperidine]-2,4(3H,7H)-dione] |  |  | inhibition at 0.1 µM (GnRH receptor [2]; [4]): 15% |
| COc1cccc(CN2CCC3(CC2)OCc2c3c(=O)n(C[C@H](N)c3ccccc3)c(=O)n2Cc2c(F)cccc2C(F)(F)F)c1 [Example 1-14, (R)-3-(2-amino-2-phenylethyl)-1-(2-fluoro-6-(trifluoromethyl)benzyl)-1′-(3-methoxybenzyl)-1H-spiro[furo[3,4-d]pyrimidine-5,4′-piperidine]-2,4(3H,7H)-dione] |  |  | inhibition at 0.1 µM (GnRH receptor [2]; [4]): 34%; inhibition at 0.01 µM (GnRH receptor [1]): 96% |
| N#Cc1cccc(CN2CCC3(CC2)OCc2c3c(=O)n(C[C@H](N)c3ccccc3)c(=O)n2Cc2c(F)cccc2C(F)(F)F)c1 [Example 1-15, (R)-3-((3-(2-amino-2-phenylethyl)-1-(2-fluoro-6-(trifluoromethyl)benzyl)-2,4-dioxo-2,3,4,7-tetrahydro-1H-spiro[furo[3,4-d]pyrimidine-5,4′-piperidine]-1′-yl)methyl)benzonitrile] |  |  | inhibition at 0.1 µM (GnRH receptor [2]; [4]): 67%; inhibitory effect compared with compounds comprising alkyl group (Examples 1-2 and 1-3) (GnRH receptor [1]): improved inhibitory effect; inhibition at 0.01 µM (GnRH receptor [1]): 91.3% |
| COC(=O)c1cccc(CN2CCC3(CC2)OCc2c3c(=O)n(C[C@H](N)c3ccccc3)c(=O)n2Cc2c(F)cccc2C(F)(F)F)c1 [Example 1-19, (R)-methyl 3-((3-(2-amino-2-phenylethyl)-1-(2-fluoro-6-(trifluoromethyl)benzyl)-2,4-dioxo-2,3,4,7-tetrahydro-1H-spiro[furo[3,4-d]pyrimidine-5,4′-piperidin]-1′-yl)methyl)benzoate] | 97.5% | 89% | inhibitory effect compared with compounds comprising alkyl group (Examples 1-2 and 1-3) (GnRH receptor [1]): improved inhibitory effect |
| N[C@@H](Cn1c(=O)c2c(n(Cc3c(F)cccc3C(F)(F)F)c1=O)COC21CCN(Cc2cccc3nonc23)CC1)c1ccccc1 [Example 1-25, (R)-3-(2-amino-2-phenylethyl)-1′-(benzo[c][1,2,5]oxadiazol-4-ylmethyl)-1-(2-fluoro-6-(trifluoromethyl)benzyl)-1H-spiro[furo[3,4-d]pyrimidine-5,4′-piperidine]-2,4(3H,7H)-dione] | 91.3% | 56% |  |
| Cc1ccccc1CN1CCC2(CC1)OCc1c2c(=O)n(C[C@H](N)c2ccccc2)c(=O)n1Cc1c(F)cccc1C(F)(F)F [Example 1-26, (R)-3-(2-amino-2-phenylethyl)-1-(2-fluoro-6-(trifluoromethyl)benzyl)-1′-(2-methylbenzyl)-1H-spiro[furo[3,4-d]pyrimidine-5,4′-piperidine]-2,4(3H,7H)-dione] | 102% | 22% |  |
| N[C@@H](Cn1c(=O)c2c(n(Cc3c(F)cccc3C(F)(F)F)c1=O)COC21CCN(Cc2ccccc2F)CC1)c1ccccc1 [Example 1-29, (R)-3-(2-amino-2-phenylethyl)-1-(2-fluoro-6-(trifluoromethyl)benzyl)-1′-(2-fluorobenzyl)-1H-spiro[furo[3,4-d]pyrimidine-5,4′-piperidine]-2,4(3H,7H)-dione] | 104% | 58% |  |
| N[C@@H](Cn1c(=O)c2c(n(Cc3c(F)cccc3F)c1=O)COC21CCN(Cc2ccc(C(F)(F)F)o2)CC1)c1ccccc1 [Example 1-42, (R)-3-(2-amino-2-phenylethyl)-1-(2,6-difluorobenzyl)-1′-((5-(trifluoromethyl)furan-2-yl)methyl)-1H-spiro[furo[3,4-d]pyrimidine-5,4′-piperidine]-2,4(3H,7H)-dione] | 93.9% | 82% |  |
| Cc1ccc(CN2CCC3(CC2)OCc2c3c(=O)n(C[C@H](N)c3ccccc3)c(=O)n2Cc2c(F)cccc2C(F)(F)F)cc1 [Example 1-50, (R)-3-(2-amino-2-phenylethyl)-1-(2-fluoro-6-(trifluoromethyl)benzyl)-1′-(4-methylbenzyl)-1H-spiro[furo[3,4-d]pyrimidine-5,4′-piperidine]-2,4(3H,7H)-dione] |  |  | inhibition at 0.1 µM (GnRH receptor [2]; [4]): 17%; inhibition at 0.01 µM (GnRH receptor [1]): 96.3% |
| N[C@@H](Cn1c(=O)c2c(n(Cc3c(F)cccc3C(F)(F)F)c1=O)COC21CCN(Cc2ccc(Cl)cc2)CC1)c1ccccc1 [Example 1-51, (R)-3-(2-amino-2-phenylethyl)-1′-(4-chlorobenzyl)-1-(2-fluoro-6-(trifluoromethyl)benzyl)-1H-spiro[furo[3,4-d]pyrimidine-5,4′-piperidine]-2,4(3H,7H)-dione] | 95.6% | 30% |  |
| N[C@@H](Cn1c(=O)c2c(n(Cc3c(F)cccc3C(F)(F)F)c1=O)COC21CCN(Cc2cocn2)CC1)c1ccccc1 [Example 1-63, (R)-3-(2-amino-2-phenylethyl)-1-(2-fluoro-6-(trifluoromethyl)benzyl)-1′-(oxazol-4-ylmethyl)-1H-spiro[furo[3,4-d]pyrimidine-5,4′-piperidine]-2,4(3H,7H)-dione] | 88.6% | 18% |  |
| N[C@@H](Cn1c(=O)c2c(n(Cc3c(F)cccc3C(F)(F)F)c1=O)CCC21CCN(Cc2ccc(C(F)(F)F)o2)CC1)c1ccccc1 [Example 3-5, (R)-3-(2-amino-2-phenylethyl)-1-(2-fluoro-6-(trifluoromethyl)benzyl)-1′-((5-(trifluoromethyl)furan-2-yl)methyl)-6,7-dihydrospiro[cyclopenta[d]pyrimidine-5,4′-piperidine]-2,4(1H,3H)-dione] | 101% | 99% |  |
| Cc1cccc(C(Cn2c(=O)c3c(n(Cc4c(F)cccc4C(F)(F)F)c2=O)COC32CCN(Cc3ccc(C(F)(F)F)o3)CC2)NCCCC(=O)O)n1 (stereo not drawn) [Example 36, 4-((2-(1-(2-fluoro-6-(trifluoromethyl)benzyl)-2,4-dioxo-1′-((5-(trifluoromethyl)furan-2-yl)methyl)-1H-spiro[furo[3,4-d]pyrimidine-5,4′-piperidin]-3(2H,4H,7H)-yl)-1-(6-methylpyridin-2-yl)ethyl)amino)butanoic acid] | 88% |  | inhibition at 0.01 µM (GnRH receptor [2]; compound at 10 nM, leuprolide acetate as ligand, HEK293): 88.2% |
| CONC(=O)Nc1cccc(C(Cn2c(=O)c3c(n(Cc4c(F)cccc4C(F)(F)F)c2=O)COC32CCN(Cc3ccc(C(F)(F)F)o3)CC2)NC(=O)OC(C)(C)C)c1 (stereo not drawn) [Example 63, tert-butyl (2-(1-(2-fluoro-6-(trifluoromethyl)benzyl)-2,4-dioxo-1′-((5-(trifluoromethyl)furan-2-yl)methyl)-1H-spiro[furo[3,4-d]pyrimidine-5,4′-piperidin]-3(2H,4H,7H)-yl)-1-(3-(3-methoxyureido)phenyl)ethyl)carbamate] | 89.8% | 100% |  |
